Laboratory results from patent EP0433759A1, “4-Substituted alkyl carbapenem antibiotics” (Bristol-Myers Squibb Company, priority 1989, dated 1991).

Experiment: Solubility in water, observation on the lyophilized product
Type: physicochemical
Conditions: lyophilized material
Protocol: A solution of (4R,5S,6S)-4-(4"-aminobutyl)-6-[(1'R)-1'-hydroxyethyl]-3-[(pyridin-4-yl)methylthio]-7-oxo-1-azabicyclo[3.2.0]hept-2-ene-2-carboxylic acid (0.134 g, 0.34 mmol) in 15 mL of cold water (pH 6.4), was adjusted to pH 8.0 with 1 M NaOH. Then 0.170 g (1.36 mmol) of aminoiminomethanesulfonic acid [K. Kim et al., Tet. Lett., 29, 3183 (1988)] was added in small portions over 5 min while maintaining the pH at 8 with 1 M NaOH. Three more portions of aminoiminomethanesulfonic acid (3 x 0.050 g) were added at 30 min intervals and the resulting mixture (some insoluble material) was stirred for a total of 3 h at 0-5 C. The pH was maintained throughout at 8 with 1 M NaOH. Then 15 mL of 0.2M pH 6.0 phosphate buffer was added and the resulting homogeneous solution was chromatographed on reverse phase silica gel (µBondapak C18, 2.5 x 14 cm). Elution with a gradient of acetonitrile (0-10%) in water gave 0.103 g (69%) of the title compound as a white amorphous powder after freeze drying.

Solubility in water: only slightly soluble in water
Structure (SMILES): C[C@@H](O)[C@H]1C(=O)N2C(C(=O)O)=C(SCc3ccncc3)[C@H](CCCCNC(=N)N)[C@H]12 [Example 78, (4R,5S,6S)-4-(4"-Guanidinobutyl]-6-[(1'R)-1'-hydroxyethyl]-3-[(pyridin-4-yl)methylthio]-7-oxo-1-azabicyclo-[3.2.0]hept-2-ene-2-carboxylic acid]
